Source: patent US20260102359A1, “COMBINATION TREATMENT OF DERMAL AND TRANSDERMAL FIBROTIC DISEASES, DISORDERS AND ASSOCIATED PAIN AND INFLAMMATION” (ERESINA, LLC, priority 2022, published 2026)
Counter-ions that a name gives are not always drawn.

System: hDMFa myofibroblast cells

Row | SMILES | Compound Myofibroblast Cytotoxicity Activity
1 | C=C1C(=O)O[C@@H]2/C=C(\C)CC/C=C(\C)CC[C@@H]12 [Cmpd 292, Costunolide] | +++
2 | CN(CC(=O)O)C(=N)N.O [Cmpd 295, Creatine monohydrate] | ++
3 | CC1(COc2ccc3c(c2)ncn3-c2ccc3cccc(N4CCC(N)CC4)c3n2)COC1 [Cmpd 296, Crenolanib (CP-868596)] | +++++
4 | CC=CC(=O)N(CC)c1ccccc1C [Cmpd 298, Crotamiton] | ++
5 | CN(C)c1ccc(C(=C2C=CC(=[N+](C)C)C=C2)c2ccc(N(C)C)cc2)cc1 [Cmpd 299, Crystal Violet] | +++
6 | CC1CC(OC(=O)C(O)c2ccccc2)CC(C)(C)C1 (stereo not drawn) [Cmpd 301, Cyclandelate] | +++
7 | Nc1cc[nH]c(=O)n1 [Cmpd 304, Cytosine] | ++
8 | O=C(CO)[C@@H](O)[C@H](O)[C@H](O)CO [Cmpd 305, D-(−)-Fructose] | ++
9 | OC[C@H]1O[C@H](OC[C@H]2O[C@H](O[C@]3(CO)O[C@H](CO)[C@@H](O)[C@@H]3O)[C@H](O)[C@@H](O)[C@@H]2O)[C@H](O)[C@@H](O)[C@H]1O [Cmpd 308, D-(+)-Raffinose (hydrate)] | ++
10 | CC(C)(C)c1nc(-c2cccc(NS(=O)(=O)c3c(F)cccc3F)c2F)c(-c2ccnc(N)n2)s1.CS(=O)(=O)O [Cmpd 311, Dabrafenib Mesylate (GSK-2118436)] | ++
11 | COc1cc2ncnc(Nc3ccc(F)c(Cl)c3)c2cc1NC(=O)/C=C/CN1CCCCC1 [Cmpd 313, Dacomitinib (PF299804, PF299)] | +++
12 | O=C1CN(/N=C/c2ccc(-c3ccc([N+](=O)[O-])cc3)o2)C(O)=N1 [Cmpd 320, Dantrolene, sodium salt] | ++++
13 | CCOc1ccc(Cc2cc([C@@H]3O[C@H](CO)[C@@H](O)[C@H](O)[C@H]3O)ccc2Cl)cc1.C[C@H](O)CO.O [Cmpd 321, Dapagliflozin ((2S)-1,2-propanediol,hydrate)] | ++
14 | CN(C)[C@@H](CCOc1cccc2ccccc12)c1ccccc1 [Cmpd 322, Dapoxetine HCl] | ++
15 | Cc1nc(Nc2ncc(C(=O)Nc3c(C)cccc3Cl)s2)cc(N2CCN(CCO)CC2)n1 [Cmpd 326, Dasatinib (BMS-354825)] | +++
16 | Cc1nc(Nc2ncc(C(=O)Nc3c(C)cccc3Cl)s2)cc(N2CCN(CCO)CC2)n1 [Cmpd 327, Dasatinib hydrochloride] | +++
17 | Cc1nc(Nc2ncc(C(=O)Nc3c(C)cccc3Cl)s2)cc(N2CCN(CCO)CC2)n1.O [Cmpd 328, Dasatinib Monohydrate] | +++
18 | COc1cccc2c1C(=O)c1c(O)c3c(c(O)c1C2=O)C[C@@](O)(C(C)=O)C[C@@H]3O[C@H]1C[C@H](N)[C@H](O)[C@H](C)O1 [Cmpd 329, Daunorubicin HCl] | +++
19 | CCCCCCCCCC(=O)O [Cmpd 331, Decanoic acid] | +
20 | C=C1CC[C@@H]2[C@](C)(CO)[C@H](O)CC[C@@]2(C)[C@@H]1/C=C/C1=CCOC1=O [Cmpd 334, Dehydroandrographolide] | ++
21 | C=C1CC[C@H]2C(=C)CC[C@H]3C(=C)C(=O)O[C@@H]3[C@@H]12 [Cmpd 336, Dehydrocostus Lactone] | +++++

Row | SMILES | Compound Myofibroblast Cytotoxicity Activity
22 | O=C1O[C@H](CO)[C@@H](O)[C@H](O)[C@H]1O [Cmpd 338, delta-Gluconolactone] | ++
23 | C[C@H](CCC(=O)O)[C@H]1CC[C@H]2[C@@H]3CC[C@@H]4C[C@H](O)CC[C@]4(C)[C@H]3C[C@H](O)[C@]12C [Cmpd 339, Deoxycholic acid sodium salt] | +++++
24 | Cc1cc(N)c2ccccc2[n+]1CCCCCCCCCC[n+]1c(C)cc(N)c2ccccc21 [Cmpd 340, Dequalinium Chloride] | ++
25 | CCCCCCCCCCCCC/C=C/[C@@H](O)[C@@H](N)CO [Cmpd 341, D-erythro-Sphingosine (synthetic)] | ++
26 | CNCCCN1c2ccccc2CCc2ccccc21.Cl [Cmpd 342, Desipramine hydrochloride] | ++++
27 | C#C[C@]1(O)CC[C@H]2[C@@H]3CCC4=CCCC[C@@H]4[C@H]3C(=C)C[C@@]21CC [Cmpd 344, Desogestrel] | +++
28 | Cc1c(OCC(F)(F)F)ccnc1C[S@@+]([O-])c1nc2ccccc2[nH]1 [Cmpd 345, Dexlansoprazole] | ++
29 | NC(=O)CC[C@@H](N)C(=O)O [Cmpd 346, D-Glutamine] | ++
30 | CC(=O)Nc1c(I)c(NC(C)=O)c(I)c(C(=O)O)c1I [Cmpd 348, Diatrizoic acid] | ++
31 | COc1ccc(Cc2cnc(N)nc2N)cc1OC [Cmpd 349, Diaveridine] | ++
32 | Oc1ccc(Cl)cc1Cc1cc(Cl)ccc1O [Cmpd 353, Dichlorophen] | +++++
33 | N#CC(c1ccc(Cl)cc1)c1c(Cl)cc(-n2ncc(=O)[nH]c2=O)cc1Cl (stereo not drawn) [Cmpd 354, Diclazuril] | +++
34 | O=C(O)Cc1ccccc1Nc1c(Cl)cccc1Cl [Cmpd 355, Diclofenac] | ++
35 | CC/C(=C(/CC)c1ccc(O)cc1)c1ccc(O)cc1 [Cmpd 358, Diethylstilbestrol] | +++
36 | O=C(O)c1cc(-c2ccc(F)cc2F)ccc1O [Cmpd 359, Diflunisal] | ++
37 | OC(CCCN1CCCCC1)(c1ccccc1)c1ccccc1 [Cmpd 365, Diphenidol HCl] | ++++
38 | CC(C)N(CCC(C(N)=O)(c1ccccc1)c1ccccn1)C(C)C (stereo not drawn) [Cmpd 366, Disopyramide] | ++
39 | CC/C=C\C/C=C\C/C=C\C/C=C\C/C=C\C/C=C\CCC(=O)O [Cmpd 375, Docosahexaenoic Acid] | +++
40 | O=C(O[C@@H]1C[C@@H]2C[C@H]3C[C@H](C1)N2CC3=O)c1c[nH]c2ccccc12 [Cmpd 376, Dolasetron] | ++
41 | O=c1[nH]c2ccccc2n1CCCN1CCC(n2c(=O)[nH]c3cc(Cl)ccc32)CC1 [Cmpd 378, Domperidone] | ++
42 | CC(O)C(=O)O.CC(O)C(=O)O.CN1CCN(c2ccc3nc(-c4c(N)c5c(F)cccc5[nH]c4=O)[nH]c3c2)CC1 [Cmpd 383, Dovitinib Dilactic acid] | +++

Row | SMILES | Compound Myofibroblast Cytotoxicity Activity
43 | COc1cc2nc(N3CCN(C(=O)C4COc5ccccc5O4)CC3)nc(N)c2cc1OC (stereo not drawn) [Cmpd 384, Doxazosin Mesylate] | +++
44 | CN(C)CCC=C1c2ccccc2COc2ccccc21 [Cmpd 385, Doxepin (hydrochloride)] | ++
45 | C=C1/C(=C\C=C2/CCC[C@]3(C)[C@@H]([C@H](C)/C=C/[C@H](C)C(C)C)CC[C@@H]23)C[C@@H](O)C[C@@H]1O [Cmpd 386, Doxercalciferol] | +++
46 | C[C@H]1O[C@@H](n2cc(F)c(=O)[nH]c2=O)[C@H](O)[C@@H]1O [Cmpd 387, Doxifluridine] | ++++
47 | C[C@H]1c2cccc(O)c2C(=O)C2=C(O)[C@]3(O)C(=O)C(C(N)=O)=C(O)[C@@H](N(C)C)[C@@H]3[C@@H](O)[C@@H]21 [Cmpd 388, Doxycycline HCl] | ++
48 | CC(C)(CO)[C@H](O)C(=O)NCCCO [Cmpd 390, D-Panthenol] | ++
49 | CC(C)(CO)[C@@H](O)C(=O)NCCC(=O)[O-].[Na+] [Cmpd 391, D-Pantothenate sodium] | ++
50 | CNCC[C@H](Oc1cccc2ccccc12)c1cccs1 [Cmpd 397, Duloxetine HCl] | +++++
51 | CCCCOc1ccc(C(=O)CCN2CCCCC2)cc1 [Cmpd 398, Dyclonine HCl] | +++
52 | Clc1ccc(COC(Cn2ccnc2)c2ccc(Cl)cc2Cl)cc1 (stereo not drawn) [Cmpd 403, Econazole nitrate] | +++
53 | O=C([O-])CN(CCN(CC(=O)[O-])CC(=O)[O-])CC(=O)[O-].[Ca+2].[Na+].[Na+] [Cmpd 404, edetate calcium disodium] | ++
54 | CC[N+](C)(C)c1cccc(O)c1.[Cl-] [Cmpd 406, Edrophonium (chloride)] | +++
55 | CC/C=C\C/C=C\C/C=C\C/C=C\C/C=C\CCCC(=O)O [Cmpd 408, Eicosapentaenoic Acid] | +++
56 | CC1=NN(c2ccc(C)c(C)c2)C(=O)/C1=N\Nc1cccc(-c2cccc(C(=O)O)c2)c1O [Cmpd 410, Eltrombopag] | ++
57 | CN1CCC(COc2cnc(-c3cccc(Cn4nc(-c5cccc(C#N)c5)ccc4=O)c3)nc2)CC1 [Cmpd 413, EMD-1214063] | ++++
58 | Cc1cc(O)c2c(c1)C(=O)c1cc(O)cc(O)c1C2=O [Cmpd 415, Emodin (6-Methyl-1,3,8-trihydroxyanthraquinone)] | ++
59 | CCn1cc(C(=O)O)c(=O)c2cc(F)c(N3CCNCC3)nc21 [Cmpd 416, Enoxacin Sesquihydrate] | ++
60 | C=C1[C@H](CO)[C@@H](O)C[C@@H]1n1cnc2c(=O)[nH]c(N)nc21 [Cmpd 418, Entecavir Hydrate] | +++
61 | CN1CCN(c2ccc(C(=O)Nc3n[nH]c4ccc(Cc5cc(F)cc(F)c5)cc34)c(NC3CCOCC3)c2)CC1 [Cmpd 419, Entrectinib] | +++
62 | Cn1cc(C2=C(c3cn(C4CCN(Cc5ccccn5)CC4)c4ccccc34)C(=O)NC2=O)c2ccccc21 [Cmpd 420, Enzastaurin (LY317615)] | ++++
63 | O=S(=O)([O-])CCCS(=O)(=O)[O-].[Na+].[Na+] [Cmpd 423, Eprodisate disodium] | ++
